The experiment relates to NCI-H1341 complex spheroids, percent test/control. Description: Anticancer human tumor NCI-H1341 cell line growth inhibition [AhR].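 On all read-outs here: spheroids exposed to agents for seven days before readout.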 Particulars: for viability, T/C: stronger effect = lower value. From the text:
Multicellular complex tumor spheroid response to aryl hydrocarbon receptor antagonists in combination with a variety of drugs and investigational agents in selected tumor cell lines
The current study was undertaken to assess response to aryl hydrocarbon receptor antagonists in combination with standard-of-care drugs and investigational agents in solid tumor complex spheroid models. Complex spheroids include a stromal component modeled by human endothelial cells (HUVEC) and fibroblasts modeled by human mesenchymal stem cells (MSCs). The concentration ranges selected for each drug and investigational agent were based upon clinically achievable concentrations if the clinical Cmax of the agent was known.
Compounds. The drugs and investigational agents: BAY 2416964 (NSC825713), GNF351 (NSC835774), CH-223191 (NSC835775), CPI-455 (NSC825282), aza-TdCyd (NSC777586), decitabine (NSC127716), belinostat (NSC758774), entinostat (NSC756642), pevonedistat (NSC761192), tazemetostat (NSC777109), talazoparib (NSC765396), olaparib (NSC753686), selinexor (NSC780203), nedisertib (M3814, NSC802822), bortezomib (NSC756655), venetoclax (NSC766270), doxorubicin (NSC123127), elimusertib (BAY189344, NSC800525), ceralasertib (AZD6738, NSC777638), TAK-243 (NSC785004), alisertib (NSC759677), etoposide (NSC141540), topotecan (NSC609699), eribulin (NSC707389), gemcitabine (NSC613327), carboplatin (NSC241240), cisplatin (NSC119875), and SN-38 (NSC673596) were obtained from the National Cancer Institute (NCI) Developmental Therapeutics Program Chemical Repository (32). The FDA-approved anticancer drug set is available from the Developmental Therapeutics Program at https://dtp.cancer.gov/organization/dscb/obtaining/available plates.htm. […] The stock solutions were prepared in dimethyl sulfoxide (DMSO, Sigma-Aldrich, St. Louis, MO, cat. D2650), except for the platinum compounds which were prepared in saline (Quality Biological, Gaithersburg, MD, cat. 114-055-101), at 800-fold the tested concentration and stored at -70 degrees C prior to their use. All drugs and investigational agents were tested over a range starting from a high concentration at or near the clinical Cmax and decreasing in half-log increments. If the clinical Cmax for an agent had not been determined, the highest concentration tested was 10 microM (Table 1).
Cell Culture. All cells were maintained in an incubator at 37 degrees C and 5% CO2 with 95% humidity. The PDC lines were cultured according to standard operating procedures established by the NCI PDMR (https://pdmr.cancer.gov). Briefly, all PDCs were thawed and cultured in Matrigel-coated flasks prepared with a working solution of 1X Ham's F-12 nutrient mix, without supplementation (Invitrogen, Waltham, MA, cat. 11765054), 100 U/mL penicillin-streptomycin (Invitrogen, cat. 15140122), and 2.5% Matrigel (Corning Inc., Corning, NY, cat. 354248) for the first three passages. All PDCs were cultured in complete DMEM/F-12 media containing advanced DMEM/F-12 (Invitrogen, cat. 12634028), 4.9% defined fetal bovine serum, heat inactivated (HyClone Laboratories Inc., Logan, UT, cat. SH30070.03HI), 389 ng/mL hydrocortisone (Sigma-Aldrich, cat. H4001), 9.7 ng/mL human EGF recombinant protein (Invitrogen, cat. PHG0313), 23.4 microg/mL adenine (Sigma-Aldrich, cat. A2786), 97.3 U/mL penicillin-streptomycin (Invitrogen, cat. 15140122), 1.9 mM L-glutamine (Invitrogen, cat. 25030081), and 9.7 microM Y-27632 dihydrochloride (Tocris Bioscience, Bristol, United Kingdom, cat. 1254). The PDCs were cultured in complete DMEM/F12 media without 10 microM Y-27632 dihydrochloride for at least two passages prior to the screen. The established cell lines NCI-H1341 and […] were cultured in DMEM/F-12, HEPES (Invitrogen, cat. 11330032), 5% defined fetal bovine serum (HyClone Laboratories Inc., cat. SH30070.03), ITS premix universal culture supplement [insulin (5 microg/mL), transferrin (5 microg/mL), and selenious acid (5 ng/mL)] […]

Where [1] appears, read: curve of first compound, second compound 0.1 µM.
Setting [2] is: curve of first compound, second compound 0.316 µM.
[3] abbreviates: curve of first compound, second compound 1 µM.
[4] abbreviates: curve of first compound, second compound 3.16 µM.
Where [5] appears, read: curve of first compound, second compound 10 µM.
[6] abbreviates: second compound 0.1 µM, first compound 0.0316 µM.
Where [7] appears, read: second compound 0.1 µM, first compound 0.1 µM.
The mark [8] stands for this setting: second compound 0.1 µM, first compound 0.316 µM.
Setting [9] is: second compound 0.1 µM, first compound 1 µM.
Where [10] appears, read: second compound 0.316 µM, first compound 0.0316 µM.
Where [11] appears, read: second compound 0.316 µM, first compound 0.1 µM.
Where [12] appears, read: second compound 0.316 µM, first compound 0.316 µM.
Setting [13] is: second compound 0.316 µM, first compound 1 µM.
Setting [14] is: second compound 1 µM, first compound 0.0316 µM.
Setting [15] is: second compound 1 µM, first compound 0.1 µM.
Where [16] appears, read: second compound 1 µM, first compound 0.316 µM.
Where [17] appears, read: second compound 1 µM, first compound 1 µM.
[18] abbreviates: second compound 3.16 µM, first compound 0.0316 µM.
The mark [19] stands for this setting: second compound 3.16 µM, first compound 0.1 µM.
The mark [20] stands for this setting: second compound 3.16 µM, first compound 0.316 µM.
The mark [21] stands for this setting: second compound 3.16 µM, first compound 1 µM.
Where [22] appears, read: second compound 10 µM, first compound 0.0316 µM.
Setting [23] is: second compound 10 µM, first compound 0.1 µM.
[24] abbreviates: second compound 10 µM, first compound 0.316 µM.
Setting [25] is: second compound 10 µM, first compound 1 µM.

“And” between values parts separate entries of the source, which are not always exact repeats. Identical values can stand only once.

Turning to `CC(C)c1c(-c2ccccc2)nc2c(C#N)c[nH]n2c1=O`, the viability, T/C (in general, the ratio of treated to control) runs as follows: (compound 0.0316 µM) 105% (2×) and 130%; (compound 0.1 µM) 93.4% and 104% and 101%; (compound 0.316 µM) 90% and 98.5% and 101%; (compound 1 µM) 88.2% and 103% and 97.3%; (compound 3.16 µM) 100% and 82.5% and 90.3%; (compound 10 µM) 78% and 92% and 91.9%. For the same molecule, for the setting “curve of compound”, the IC50 (in general, the concentration needed to halve the response being measured) was greater than 10000 nM.
Turning to `CC(CO)NC(=O)c1cc(-c2ccc(Cl)cc2)nn(-c2cnn(C)c2)c1=O` (centres undefined), the viability, T/C (compound 10 µM) was 78.7% [middle of 19 runs]. In addition, under “compound alone, run of 07/12/2022”, the IC50 is greater than 10000 nM.
For `CC1COCCN1c1cc(C2(S(C)(=N)=O)CC2)nc(-c2ccnc3[nH]ccc23)n1` (centres undefined), the viability, T/C (compound 0.0316 µM) was 78.3% and 98.6% and 99.5%; the viability, T/C (compound 0.1 µM) was 102% and 101% and 88.4%; the viability, T/C (compound 0.316 µM) was 83.1% and 114% and 76.1%; the viability, T/C (compound 1 µM) was 96.3% and 75.8% and 66.2%; the viability, T/C (compound 3.16 µM) is 60.8% and 47.8% and 37.9%; the viability, T/C (compound 10 µM) is 23.1% and 30.4% and 20.2%. The IC50 (curve of compound) is 4400 nM and 2570 nM and 1910 nM.
Regarding `COc1ccc([C@@H](O)c2cc(-c3ncnc4cc(N5CCOCC5)ccc34)c(F)cc2Cl)nn1`, the viability, T/C reads like this: (compound 0.0316 µM) 97.1% and 88.2% and 96%; (compound 0.1 µM) 96.2% and 93.7% and 96.8%; (compound 0.316 µM) 91.2% and 79.9% and 87.8%; (compound 1 µM) 63.1% and 57% and 71.2%; (compound 3.16 µM) 31.1% and 22.9% and 32.9%; (compound 10 µM) 4.6% and 6.65% and 8.33%. For the same molecule, where the note is “curve of compound”, the IC50 is 1650 nM and 1260 nM and 1880 nM.
As to `Cc1ccccc1N=Nc1ccc(NC(=O)c2ccnn2C)c(C)c1`, where the note is “compound 10 µM”, the viability, T/C was 56.2% [middle of 20 runs].
On to `COc1cccc2c1C(=O)c1c(O)c3c(c(O)c1C2=O)CC(O)(C(=O)CO)CC3OC1CC(N)C(O)C(C)O1` (centres undefined) + CC(CO)NC(=O)c1cc(-c2ccc(Cl)cc2)nn(-c2cnn(C)c2)c1=O, for which the IC50 runs as follows: under setting [1], 108 nM; under setting [2], less than 31.6 nM; under setting [3], 103 nM; under setting [4], less than 31.6 nM; under setting [5], less than 31.6 nM. Besides, the viability, T/C is, setting by setting: under setting [6], 51%; under setting [7], 53%; under setting [8], 32.4%; under setting [9], 6.25%; (second compound 0.1 µM, first compound 3.16 µM) 0.83%; (second compound 0.1 µM, first compound 10 µM) 2.75%. Moreover, the viability, T/C is 51.3% under setting [10]; 40.9% under setting [11]; 28.4% under setting [12]; 6.42% under setting [13]; 0.79% (second compound 0.316 µM, first compound 3.16 µM); 2.4% (second compound 0.316 µM, first compound 10 µM). The viability, T/C is 48.4% under setting [14]; 53.3% under setting [15]; 30.2% under setting [16]; 4.94% under setting [17]; 1.46% (second compound 1 µM, first compound 3.16 µM); 2.75% (second compound 1 µM, first compound 10 µM). Further, the viability, T/C under setting [18] was 43.9%; the viability, T/C under setting [19] is 53.7%; the viability, T/C under setting [20] is 26.7%; the viability, T/C under setting [21] is 3.92%; the viability, T/C (second compound 3.16 µM, first compound 3.16 µM) was 3.09%; the viability, T/C (second compound 3.16 µM, first compound 10 µM) is 2.61%. For the same molecule, the viability, T/C reads like this: under setting [22], 41.6%; under setting [23], 36.8%; under setting [24], 15.2%; under setting [25], 0.93%; (second compound 10 µM, first compound 3.16 µM) 2.19%; (second compound 10 µM, first compound 10 µM) 2.31%.
Consider `Nc1ncn(C2CC(O)C(CO)O2)c(=O)n1` (centres undefined) + CC(CO)NC(=O)c1cc(-c2ccc(Cl)cc2)nn(-c2cnn(C)c2)c1=O, for which the IC50 by setting is: under setting [1], 154 nM; under setting [2], 179 nM; under setting [3], 85.3 nM; under setting [4], 207 nM; under setting [5], 215 nM. Besides, the viability, T/C was 76.5% (second compound 0.1 µM, first compound 0.00316 µM); 85.7% (second compound 0.1 µM, first compound 0.01 µM); 81.8% under setting [6]; 59.3% under setting [7]; 34.2% under setting [8]; 26.6% under setting [9]. Further, the viability, T/C is, setting by setting: (second compound 0.316 µM, first compound 0.00316 µM) 92.1%; (second compound 0.316 µM, first compound 0.01 µM) 99%; under setting [10], 85.2%; under setting [11], 61.8%; under setting [12], 39.1%; under setting [13], 31.8%. For the same molecule, the viability, T/C runs as follows: (second compound 1 µM, first compound 0.00316 µM) 92.2%; (second compound 1 µM, first compound 0.01 µM) 86.3%; under setting [14], 81.3%; under setting [15], 45%; under setting [16], 32.5%; under setting [17], 33.7%. Also, the viability, T/C by setting is: (second compound 3.16 µM, first compound 0.00316 µM) 79.8%; (second compound 3.16 µM, first compound 0.01 µM) 65.6%; under setting [18], 67.1%; under setting [19], 66.3%; under setting [20], 40.6%; under setting [21], 30.9%. Also, the viability, T/C is, setting by setting: (second compound 10 µM, first compound 0.00316 µM) 82.1%; (second compound 10 µM, first compound 0.01 µM) 69.6%; under setting [22], 79.8%; under setting [23], 67.5%; under setting [24], 41%; under setting [25], 27.2%.

The values above are taken from PubChem BioAssay AID1919014 (Molecular Pharmacology Branch, DTP, NCI, 2023).
